Two compounds from PubChem BioAssay AID342 (DTP/NCI, 2004) can be followed below.

This test has as its system Swiss mice, Sarcoma 180 sc, mean tumor weight T/C. Description: NCI In Vivo Anticancer Drug Screen. Data for tumor model Sarcoma 180 (subcutaneous) in Swiss mice. The note with it: endpoint: mean tumor weight, higher = larger tumour. The method in brief:
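Antitumor activity is assessed in mice with transplantable tumors. Treated (T) and vehicle control (C) groups are compared on survival or tumor size.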

Each structure is given as a SMILES string. “And” between values parts separate entries of the source, which are not always exact repeats. Equal values may be shown once.

As for `CCC(=O)O[C@H]1CC[C@H]2[C@@H]3CCC4=CC(=O)CC[C@]4(C)[C@H]3CC[C@]12C`, the T/C (dose: 90.0 mg/kg/injection, schedule: Q01DX007 (sc), vehicle: steriod suspending solution) was 102 % of control; the T/C (dose: 125.0 mg/kg/injection, schedule: Q01DX007 (sc), vehicle: steriod suspending solution) was 82 % of control; the T/C (dose: 180.0 mg/kg/injection, schedule: Q01DX007 (sc), vehicle: steriod suspending solution) was 104 % of control; the T/C (dose: 250.0 mg/kg/injection, schedule: Q01DX007 (sc), vehicle: steriod suspending solution) was 102 % of control; the T/C (dose: 360.0 mg/kg/injection, schedule: Q01DX007 (sc), vehicle: steriod suspending solution) is 107 % of control; the T/C (dose: 500.0 mg/kg/injection, schedule: Q01DX007 (sc), vehicle: steriod suspending solution) was 60 % of control. Moreover, the T/C was 69 % of control (dose: 720.0 mg/kg/injection, schedule: Q01DX007 (sc), vehicle: steriod suspending solution) and 64 % of control (dose: 1000.0 mg/kg/injection, schedule: Q01DX007 (sc), vehicle: steriod suspending solution).

In the case of `CCCOP(=S)(N1CC1)N1CC1`, the T/C (dose: 6.65 mg/kg/injection, schedule: Q#A X014 (ip), vehicle: methylcellulose (MC)) is 74 % of control; the T/C (dose: 6.65 mg/kg/injection, schedule: Q#A X014 (ip), vehicle: saline) was 80 % of control and 89 % of control; the T/C (dose: 10.0 mg/kg/injection, schedule: Q#A X014 (ip), vehicle: methylcellulose (MC)) was 67 % of control; the T/C (dose: 15.0 mg/kg/injection, schedule: Q#A X014 (ip), vehicle: methylcellulose (MC)) was 47 % of control; the T/C (dose: 15.0 mg/kg/injection, schedule: Q#A X014 (ip), vehicle: saline) is 37 % of control and 40 % of control.
